Holding throughout (format): cell-based, human
In experiment [1] the test system is MONO-MAC-1 cells. In words: Flow cytometry of CD163, CD16 and CD4 expression in differentiated MONO-MAC-1 cells. Conditions: for expression of CD163+ / expression of CD16+: added for 24 hours to MonoMac-1 treated with PMA+DEX+MCSF+LPS; for expression of CD163+: FIG. 6A; for expression of CD16+: FIG. 6B. As for the experimental part: MONO-MAC-1 cells were cultured at 37° C. in a humidified atmosphere containing 5% CO2 using RPM1 1640 medium supplemented with 10% heat-inactivated fetal bovine serum (FBS, Sigma) and 1% of stable glutamine, 1 mM sodium pyruvic acid and 1×MEM non-essential amino acids were added. Cells were seeded at a density of 0.5×10^6 cells/ml and were sub cultured upon reaching 1× 10^6 cells/ml. Medium was changed every 2 to 3 days. […] Data were analyzed with GraphPad Prism (version 6) soft-ware. Flow cytometric measurements were performed using four colors FACSCalibur (Becton Dickinson).
On the technique in general: A flow cytometer gives signals particle by particle.

Experiment [2] has as its system tryptophan catabolism/IDO activity in MonoMac-1. In words: Tryptophan catabolism/IDO activity (kynurenine/tryptophan in cell culture supernatant) in MonoMac-1. To be noted: for kynurenine/tryptophan ratio: cell culture supernatant, FIG. 7C. From the text:
A major mechanism for inflammation and disease pathogenesis involves tryptophan catabolism via the kynurenine pathway. As such we evaluated cytokine inducers of IDO enzyme induction, a limiting step in the kynurenine pathway.
TNF α and IFN γ induce tryptophan catabolism/IDO activity as determined by increase in the kynurenine/tryptophan ratio in cell culture supernatant, in response to TNF alpha and IFN gamma treatment (FIG. 7).

For experiment [3], the system named is MCP-1. As to the kind of experiment: MCP-1 concentration in MonoMac-1 culture. To be noted: FIG. 8.
[4] abbreviates: induction: PMA 20 ng/ml ± LPS 10 ng/ml 3 days, then MCSF 5 ng/ml + DEX 200 ng/ml 4 days, FIG. 1A.

As for `FC(F)(F)c1ccc(CNc2ccc(Cc3c[nH]c4ncc(Cl)cc34)cn2)cn1` [PLX3397, reference compound], the “expression of CD16+ monocytes” value in experiment [1] (antagonist 500 nM added after PMA/LPS 72 h and 4 days MCSF+DEX, FIG. 4A) is recorded as “reduction in expression”. Further, the “expression of CD4+ monocytes” value in experiment [1] (antagonist 500 nM added after PMA/LPS 72 h and 4 days MCSF+DEX, FIG. 4B) is “reduction in expression”. The “expression of CD163+ monocytes” value in experiment [1] (antagonist 500 nM added after PMA/LPS 72 h and 4 days MCSF+DEX, FIG. 4C) was “significantly decreases expression”.
As for TNF α, in experiment [1], the “expression of CD163+” value was “further increase the expression” and the “expression of CD16+” value was “further increase the expression”. Moreover, the kynurenine/tryptophan ratio result in experiment [2] is on record as “increase”. Also, the MCP-1 concentration entry in experiment [3] is recorded as “increase MCP-1”.
With “lipopolysaccharide [LPS, reference compound]”, in experiment [1] (setting [4]), the “expression of CD163+ monocytes” value was “has the most effect”. In experiment [1] (induction: PMA ± LPS 3 days, then DEX+MCSF 4 days, FIG. 2, FIG. 3), the “percentage of CD16+CD163+ monocytes” value is “required to have maximum effect”.

B1: macrophage colony-stimulating factor (protein, UniProt P09603 33-554, looked up)
Macrophage colony-stimulating …: EEVSEYCSHMIGSGHLQSLQRLIDSQMETSCQITFEFVDQEQLKDPVCYLKKAFLLVQDIMEDTMRFRDNTPNAIAIVQLQELSLRLKSCFTKDYEEHDKACVRTFYETPLQLLEKVKNVFNETKNLLDKDWNIFSKNCNNSFAECSSQDVVTKPDCNCLYPKAIPSSDPASVSPHQPLAPSMAPVAGLTWEDSEGTEGSSLLPGEQPLHTVDPGSAKQRPPRSTCQSFEPPETPVVKDSTIGGSPQPRPSVGAFNPGMEDILDSAMGTNWVPEEASGEASEIPVPQGTELSPSRPGGGSMQTEPARPSNFLSASSPLPASAKGQQPADVTGTALPRVGPVRPTGQDWNHTPQKTDHPSALLRDPPEPGSPRISSLRPQGLSNPSTLSAQPQLSRSHSSGSVLPLGELEGRRSTRDRRSPAEPEGGPASEGAARPLPRFNSVPLTDTGHERQSEGSFSPQLQESVFHLLVPSVILVLLAVGGLLFYRWRRRSHQEPQRADSPLEQPEGSPLTQDDRQVELPV
Take B1: in experiment [1] (setting [4]), the “expression of CD163+ monocytes” value was “promotes expression”.

B2: IFN γ: cytokine inducer of IDO enzyme induction (protein, UniProt P01579 24-161, looked up)
Interferon gamma: QDPYVKEAENLKKYFNAGHSDVADNGTLFLGILKNWKEESDRKIMQSQIVSFYFKLFKNFKDDQSIQKSVETIKEDMNVKFFNSNKKKRDDFEKLTNYSVTDLNVQRKAIHELIQVMAELSPAAKTGKRKRSQMLFRG
Consider B2, for which, in experiment [1], the “expression of CD163+” value was “further increase the expression” and the “expression of CD16+” value is recorded as “further increase the expression”. Moreover, the tryptophan concentration entry in experiment [2] (added to the combination of PMA, LPS, MCSF and DEX, FIG. 7A) is recorded as “decreased”. The kynurenine concentration entry in experiment [2] (added to the combination of PMA, LPS, MCSF and DEX, FIG. 7B) is recorded as “increased”. In addition, in experiment [2], the kynurenine/tryptophan ratio entry is on record as “increase”. For the same molecule, the MCP-1 concentration entry in experiment [3] was “increase MCP-1”.

The values are drawn from patent publication US20240329033A1, “MonoMac-1 Cells Expressing CD16 and CD163” (Temple University-Of The Commonwealth System of Higher …, priority 2016, published 2024).
